Structures are written as SMILES. ≈ marks a conversion by molar mass, not a printed value. Entries after “also recorded” stand apart in the source; their conditions may differ. Read-outs that look alike come from different tables or passages of the source.

One series deals with IL-1β. Briefly: P. acnes-induced IL-1β release in THP-1 cells (ELISA). It counts as cell-based. To be noted: 25 μg/ml, 100% = P. acnes induced cells. How it is done:
(§1) Method: Preparation of Stimulant for Inflammation: P. acnes culture suspension was prepared in PBS and the cell number in the suspension was adjusted to approximately 5×10^8 CFU/ml by measuring the cell density using a Densimat. The bacterial suspension was then heat killed at 80° C. for 30 min and stored at −80° C. until further use.
(§2) Cells were seeded in a 96-well format (2×10^5 THP-1 cells per well) in media containing 10% FBS. The cells were stimulated to induce inflammatory cytokines using 3 McFarland equivalent heat-killed P. acnes. Cells in control wells were treated with PBS. One hour after induction with P. acnes, test agents were added to the induced cells at appropriate concentrations to be tested (compound 91 at 25 μg/ml). The plates were incubated at 37° C. for 24 hours. After 24 h, the plates were centrifuged to pellet the cells and the supernatants were collected. The cell culture supernatants thus obtained were analyzed for levels of cytokines (IL-1α, IL-1β, IL-6 and IL-8) by ELISA using R&D Systems kits for individual cytokines following the manufacturer's instructions.
For orientation: In an ELISA, binding on a coated surface is turned into a signal by an enzyme label.

A further series has as its system P. acnes CCARM 9010. Briefly: MIC by micro broth dilution (Alamar blue), clindamycin-resistant/nonresponsive P. acnes. Format: cell-based, Propionibacterium acnes. To be noted: for Activity / bacterial killing, dose response curve (in words): clindamycin-nonresponsive CCARM 9010.
For another series, the system named is THP-1 cells. The series is described as follows: Viability of THP-1 cells under treatment. Format: cell-based. To be noted: 25 μg/ml of compound 91.
The subject of the next series is IL-1α. Briefly: P. acnes-induced IL-1α release in THP-1 cells (ELISA). The conditions noted are these: 25 μg/ml, 100% = P. acnes induced cells. It counts as cell-based. How it is done:
as §1, §2

The next series addresses T1, E. coli DNA gyrase (Escherichia coli, UniProt P0AES4+P0AES6).
T1 construct: purchased Topogen Inc
Briefly: DNA gyrase super-coiling activity assay (Topogen kit, relaxed pHOT1 plasmid). It counts as biochemical. The conditions noted are these: for Super-coiled band (percentage of DNA super-coiling): untreated control 100%; for Inhibition of super-coiling activity of DNA gyrase (in words): 1 μM and 2.5 μM. How it is done:
DNA super-coiling activity was assayed using DNA gyrase assay kit (Topogen Inc.) with relaxed pHOT1 E. coli plasmid DNA according to manufacturer's protocol. The standard reaction mixture (20 μl) contained 35 mM Tris-HCl (pH 7.5), 24 mM KCl, 4 mM MgCl2, 2 mM dithiothreitol, 1.8 mM spermidine, 1 mM ATP, 6.5% glycerol, 0.1 mg/ml bovine serum albumin (BSA), 10 μg/ml relaxed pHOT1 plasmid DNA and 1 U of DNA gyrase. The reaction mixture was incubated at 37° C. for 1 h in presence of selected compounds/fluoroquinolone at different concentrations. The reaction was terminated by addition of ⅕ volume of loading dye (4 μl) followed by proteinase K (50 μg/ml) and again incubated at 37° C. for half an hour. 20 μl chloroform/isoamyl alcohol (24:1) was added to each tube and vortexed briefly. Thereafter, the blue aqueous phase was separated out and analyzed by 1% agarose gel electrophoresis. The gel was stained by ethidium bromide for half an hour and destained with water for 15 mins. The gel was then visualized in a trans-illuminator and photographed.

A further series concerns P. acnes MTCC 1951. The series is described as follows: MIC by micro broth dilution (Alamar blue), clindamycin-susceptible P. acnes. To be noted: for MIC: Cutibacterium acnes, MTCC1951; for Activity / bacterial killing, dose response curve (in words): clindamycin-susceptible MTCC 1951. Format: cell-based, Propionibacterium acnes. Summed up: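 P. acnes in BHI broth, inoculum adjusted to 0.5 McFarland and diluted 100-fold, exposed to serially diluted compound at 37° C. for 48-72 h under anaerobic conditions. Growth read by OD at 595 nm; MIC recorded after Alamar blue addition.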
In general terms: Broth dilution looks for growth in wells or tubes with falling amounts of substance.

A further series deals with IL-6. Briefly: P. acnes-induced IL-6 release in THP-1 cells (ELISA). It counts as cell-based. The conditions noted are these: 25 μg/ml, THP-1 cells, 100% = P. acnes induced cells.
In another series the test system is IL-8. Briefly: P. acnes-induced IL-8 release in THP-1 cells (ELISA). It counts as cell-based. To be noted: 25 μg/ml.

T1 sequence (P0AES4 whole entry, one chain of several): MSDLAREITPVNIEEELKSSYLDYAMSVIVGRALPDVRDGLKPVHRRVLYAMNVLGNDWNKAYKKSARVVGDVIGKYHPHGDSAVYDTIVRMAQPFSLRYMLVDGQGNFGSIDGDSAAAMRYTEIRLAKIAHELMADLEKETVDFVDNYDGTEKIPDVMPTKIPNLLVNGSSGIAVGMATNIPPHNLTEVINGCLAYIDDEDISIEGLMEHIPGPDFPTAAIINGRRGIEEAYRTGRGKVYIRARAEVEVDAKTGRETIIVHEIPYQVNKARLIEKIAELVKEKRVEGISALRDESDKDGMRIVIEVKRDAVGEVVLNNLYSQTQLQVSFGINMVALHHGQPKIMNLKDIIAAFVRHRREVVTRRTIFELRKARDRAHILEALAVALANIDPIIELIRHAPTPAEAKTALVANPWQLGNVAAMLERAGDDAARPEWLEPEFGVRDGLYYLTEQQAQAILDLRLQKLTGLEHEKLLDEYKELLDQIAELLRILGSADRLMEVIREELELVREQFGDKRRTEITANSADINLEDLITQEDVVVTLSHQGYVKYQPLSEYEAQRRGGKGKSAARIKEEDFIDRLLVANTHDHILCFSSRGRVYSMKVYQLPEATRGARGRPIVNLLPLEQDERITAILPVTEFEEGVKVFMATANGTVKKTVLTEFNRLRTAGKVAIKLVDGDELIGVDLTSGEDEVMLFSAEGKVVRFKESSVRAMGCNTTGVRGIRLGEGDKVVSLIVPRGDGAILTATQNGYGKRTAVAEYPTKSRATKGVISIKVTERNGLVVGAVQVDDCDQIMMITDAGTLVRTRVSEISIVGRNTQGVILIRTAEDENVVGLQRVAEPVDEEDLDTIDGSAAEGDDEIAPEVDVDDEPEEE

By MIC is commonly meant the least concentration at which growth counts as inhibited. In the case of `Cc1ncc([N+](=O)[O-])n1CC(O)CN1CCN(c2cc3c(cc2F)c(=O)c(C(=O)O)c2n3C(C)S2)CC1` (centres unmarked) [Compound 91, 6-Fluoro-7-{4-[2-hydroxy-3-(2-methyl-5-nitro-imidazol-1-yl)-propyl]-piperazin-1-yl}-1-methyl-4-oxo-4H-2-thia-8b-aza-cyclobuta[a]naphthalene-3-carboxylic acid], the results for the “Percentage reduction in P. acnes induced IL-1β release” value with IL-1β and in the series on IL-1β (listed as compound 91) were 20.49% and 20-25%, respectively. Moreover, the MIC in the series on P. acnes CCARM 9010 (Cutibacterium acnes, CCARM9010, read-out: MIC Resistant P. acnes (9010) strain) stood at 0.1 µg/mL (≈ 0.188 µM); in the series on P. acnes MTCC 1951 (Table 7, against P. acnes, read-out: MIC), 0.2 µg/mL (≈ 0.376 µM); in the series on P. acnes MTCC 1951 (read-out: MIC Susceptible P. acnes (1951) strain), 0.2 µg/mL (≈ 0.376 µM). The “Activity / bacterial killing, dose response curve (in words)” value with P. acnes CCARM 9010 was “highly efficacious bacterial killing profile”; in the series on P. acnes CCARM 9010 (listed as compound 91), “lower MIC value and faster bacterial killing profile”; in the series on P. acnes MTCC 1951 it was “highly efficacious bacterial killing profile”; in the series with P. acnes MTCC 1951 (listed as compound 91) it was “lower MIC value and faster bacterial killing profile”. In addition, in the series on THP-1 cells, the “Viability of THP-1 cells” value came to 90%. In addition, the figures for the “Percentage reduction in P. acnes induced IL-1α release” value in the series on IL-1α and in the series on IL-1α (listed as compound 91) were 27.51% and 20-25%, respectively. Also, the “Super-coiled band (percentage of DNA super-coiling)” value at E. coli DNA gyrase (0.25 μM) was “around 54.3%”; at E. coli DNA gyrase (5 μM) it was “about 2%”. The “Inhibition of super-coiling activity of DNA gyrase (in words)” value at E. coli DNA gyrase is “best gyrase inhibiting activity; also recorded: greater efficacy”; at E. coli DNA gyrase (listed as compound 91), “able to inhibit the super-coiling activity; also recorded: highly potent; also recorded: better efficacy; also recorded: most potent”. For the same compound, the “Percentage reduction in P. acnes induced IL-6 release” value was 56.76% in the series with IL-6 and around 60% in the series on IL-6 (listed as compound 91). Also, the “Effect on IL-8 levels (in words)” value in the series on IL-8 (P. acnes-induced THP-1 cells) is listed as “did not have an effect”. Moreover, in the series with IL-8 (THP-1 cells, 100% = P. acnes induced cells), the “Percentage reduction in P. acnes induced IL-8 release” value is listed as 14.65%.

These data come from patent publication US10071103B2, “Treatments for resistant acne” (VYOME BIOSCIENCES PVT. LTD., priority 2014, dated 2018).
